Test results from patent publication US20250326708A1, “LONG-ACTING SPLEEN-TARGETING CATIONIC LIPID COMPOUND COMPRISING BENZENE RING STRUCTURE, COMPOSITION COMPRISING SAME, AND USE THEREOF” (Beijing Youcarekechuang Pharmaceutical Technology Co., Ltd., priority 2024, published 2025).
Several values for one entry are separate records, joined by “and”; a condition that tells them apart may be missing. Identical values can stand only once.

Legend:
293T cells [1] = assay: Fluorescence detection of Fluc-mRNA (transfection efficiency) of LNP preparations; type: cell-based; conditions: Fluc-mRNA LNP; for Cellular transfection efficiency, times that of HHMA: vs HHMA; for Cellular transfection efficiency, times that of I-1: vs I-1; for Cellular transfection efficiency, times that of Lipofectamine 3000: vs Lipofectamine 3000; for Cellular transfection efficiency, times that of MC3: vs MC3; for Cellular transfection efficiency, times that of SM-102: vs SM-102; for Cellular transfection efficiency, times that of YK-501: vs YK-501; for Cellular transfection efficiency, times that of YK-506: vs YK-506; for Cellular transfection efficiency, times that of compound 7: vs compound 7
Procedure: (§1) Cell recovery and passage: 293T cells were recovered and cultured in culture dishes. The cells were passaged until the required number of cells was obtained.
(§2) Seeding plates: The cells in culture dishes were digested and counted, then seeded in a 96-well plate at 10,000 cells per well and seeded in a 12-well plate at 150,000 cells per well. The cells were cultured overnight until cell adhesion.
(§3) The cationic lipids listed in Table 2 were each mixed with DSPC (AVT (Shanghai) Pharmaceutical Technology Co., Ltd.), cholesterol (AVT (Shanghai) Pharmaceutical Technology Co., Ltd.), and DMG-PEG2000 in a molar ratio of 49:10:39.5:1.5 and dissolved in ethanol to prepare ethanol lipid solutions. Using the ethanol injection method, the ethanol lipid solutions were quickly added to a citrate buffer (pH between 4 and 5), and vortexed for 30 seconds for later use. eGFP-mRNA (purchased from Shanghai BioHub Biotechnology Co., Ltd.), Fluc-mRNA (purchased from Shanghai BioHub Biotechnology Co., Ltd.), or Cy5 fluorescently labeled Leqvio (purchased from Sangon Biotech (Shanghai) Co., Ltd.) was diluted in a citrate buffer (pH between 4 and 5) to obtain an mRNA aqueous solution. A certain volume of the lipid solution and the mRNA aqueous solution were mixed to prepare liposomes at a total lipid-to-mRNA weight ratio of 15:1. The mixtures were sonicated at 25° C. for 15 minutes (ultrasonic frequency: 40 kHz, ultrasonic power: 800 W). The resulting liposomes were diluted 10-fold with PBS, followed by ultrafiltration using a 300 kDa ultrafiltration tube to remove ethanol. After adjusting the volume with PBS, LNP preparations encapsulating eGFP-mRNA or Fluc-mRNA were obtained, using cationic lipids, DSPC, cholesterol, and DMG-PEG2000 at a molar ratio of 49:10:39.5:1.5.
(§4) Cell recovery and passage: The method was the same as described in Example 3.
(§5) Seeding plates: The method was the same as described in Example 3.
LNP preparations containing 0.3 μg of Fluc-mRNA (with the vector components of the LNP preparations of cationic lipids, DSPC, cholesterol, and DMG-PEG2000 in a molar ratio of 49:10:39.5:1.5, where the cationic lipids are those listed in Table 1) were added to the cell culture medium in a 96-well plate. After 24 hours of continued culture, the corresponding reagents were added according to the instructions in the Gaussia Luciferase Assay Kit. Fluorescence intensity in each well was detected using the IVIS fluorescence detection system. The transfection efficiency of LNP preparations prepared with a series of cationic lipid compounds designed in the present disclosure, as well as cationic lipids from the prior art, including SM-102, HHMA, MC3, compound 7, and I-1, is shown in Table 4.

female BALB/C mice [2] = assay: Expression of delivered mRNA in mice in vivo (IVIS in vivo imaging); conditions: 10 μg Fluc-mRNA via tail vein
Procedure: LNP preparations containing 10 μg of Fluc-mRNA were injected via the tail vein into female BALB/C mice (4 to 6 weeks old, weighing 17 to 19 g). At specified time points after administration (6 h, 24 h, 48 h, and 7 d), the mice were intraperitoneally injected with fluorescent imaging substrates and allowed to move freely for 5 minutes. The average radiation intensity (corresponding to fluorescence intensity) of proteins expressed by the mRNA delivered by the LNP preparations in the mice in vivo was then detected using the IVIS Spectrum small-animal in vivo imaging system.

female BALB/C mice [3] = assay: Expression of delivered mRNA in different organs of mice (organ imaging); type: in vivo; conditions: for Average radiation intensity of mouse organs: Heart / Average radiation intensity of mouse organs: Kidney / Average radiation intensity of mouse organs: Liver / Average radiation intensity of mouse organs: Lung / Average radiation intensity of mouse organs: Lymph / Average radiation intensity of mouse organs: Spleen: 6 hours after 5 μg Fluc-mRNA subcutaneously; for Expression level of mRNA in the spleen, times that of SM-102 / Expression level of mRNA in the spleen, times that of YK-501 / Expression level of mRNA in the spleen, times that of YK-506: 6 h; for Expression level of mRNA in the spleen, times that of SM-102: vs SM-102; for Expression level of mRNA in the spleen, times that of YK-501: vs YK-501; for Expression level of mRNA in the spleen, times that of YK-506: vs YK-506
Procedure: LNP preparations containing 5 μg of Fluc-mRNA were subcutaneously injected into female BALB/C mice (4 to 6 weeks old, weighing 17 to 19 g). At specified time points after administration (6 h), the mice were intraperitoneally injected with fluorescent imaging substrates and allowed to move freely for 5 minutes. The average radiation intensity (corresponding to fluorescence intensity) of proteins expressed by the mRNA delivered by the LNP preparations in the mice in vivo was then detected using the IVIS Spectrum small-animal in vivo imaging system. After sampling, the mice were killed by cervical dislocation and dissected, and the internal organs: heart, liver, spleen, lung, kidney, and lymph of mice were accurately isolated. The average radiation intensity (corresponding to fluorescence intensity) of proteins expressed by the mRNA delivered by the LNP preparations in various organs of mice was then detected using the IVIS Spectrum small-animal in vivo imaging system.

293T cells [4] = assay: Cell viability assay (CCK-8) with LNP preparations of Fluc-mRNA; type: cell-based; conditions: for Cell viability: LNP with 1.5 μg Fluc-mRNA, 24 hours, CCK-8
Procedure: as §1, §2, §3, §4, §5
LNP preparations containing 1.5 μg of Fluc-mRNA (with the vector components of the LNP preparations of cationic lipids, DSPC, cholesterol, and DMG-PEG2000 in a molar ratio of 49:10:39.5:1.5, where the cationic lipids are those listed in Table 1) were added to the cell culture medium in a 96-well plate. After 24 hours of continued culture, 10 μL of CCK-8 solution was added to each well, and the culture plate was incubated in an incubator for 1 hour.

[5] = Particle size and polydispersity index (PDI) of lipid nanoparticles, dynamic light scattering; type: physicochemical; conditions: LNP preparation with the named cationic lipid; 90° scattering angle, 25° C
Description: as §3
The particle size and polydispersity index (PDI) were measured using dynamic light scattering with a Malvern laser diffraction particle size analyzer.
10 μL of liposome solution was diluted to 1 mL with RNase-free deionized water and added to the sample cell. Each sample was measured three times. The measurement conditions were as follows: 90° scattering angle, 25° C.

## CCCCCCCCc1ccc(CCC(CO)(CO)NCCCCCCNC(=O)C(CCCCCC)CCCCCCCC)cc1 (stereo not shown) [YK-908, 2-hexyl-N-(6-((1-hydroxy-2-(hydroxymethyl)-4-(4-octylphenyl)butan-2-yl)amino)hexyl) decanamide]
293T cells [1]
  Cellular transfection efficiency, times that of HHMA: 5.01 times
  Cellular transfection efficiency, times that of I-1: 25.01 times
  Cellular transfection efficiency, times that of Lipofectamine 3000: 6.02 times
  Cellular transfection efficiency, times that of MC3: 53.42 times
  Cellular transfection efficiency, times that of SM-102: 3.55 times
  Cellular transfection efficiency, times that of YK-501: 109.64 times
  Cellular transfection efficiency, times that of YK-506: 7.75 times
  Cellular transfection efficiency, times that of compound 7: 19.69 times
293T cells [1]; vs YK-907
  Cellular transfection efficiency, times that of YK-907: 134 times and 134.49 times
Female BALB/C mice [2]; 6 h
  Average radiation intensity, in vivo imaging: 8918424
Female BALB/C mice [2]; 24 h
  Average radiation intensity, in vivo imaging: 1176543
Female BALB/C mice [2]; 48 h
  Average radiation intensity, in vivo imaging: 344643
Female BALB/C mice [2]; 7 d
  Average radiation intensity, in vivo imaging: 64325
Female BALB/C mice [3]
  Average radiation intensity of mouse organs: Heart: 0
  Average radiation intensity of mouse organs: Kidney: 0
  Average radiation intensity of mouse organs: Liver: 1423
  Average radiation intensity of mouse organs: Lung: 0
  Average radiation intensity of mouse organs: Lymph: 0
  Average radiation intensity of mouse organs: Spleen: 168302
  Expression level of mRNA in the spleen, times that of SM-102: 6.59 times
  Expression level of mRNA in the spleen, times that of YK-501: 11.83 times
  Expression level of mRNA in the spleen, times that of YK-506: 2.36 times
293T cells [4]
  Cell viability: 89%
293T cells [4]; difference vs YK-907
  Cell viability higher than that of YK-907: 16%
[5]
  PDI: 12.2%
  Particle size: 121 nm

## CCCCCCCCCCOC(=O)CCCN(CCCCCC(=O)OCCC(CCCCCC)CCCCCC)CCNC(CO)(CO)CCc1ccc(CCCCCCCC)cc1 [YK-909, 3-hexylnonyl 6-((4-(decyloxy)-4-oxobutyl) (2-((1-hydroxy-2-(hydroxymethyl)-4-(4-octylphenyl)butan-2-yl)amino)ethyl)amino) hexanoate]
293T cells [1]
  Cellular transfection efficiency, times that of HHMA: 6.71 times
  Cellular transfection efficiency, times that of I-1: 33.44 times
  Cellular transfection efficiency, times that of Lipofectamine 3000: 8.05 times
  Cellular transfection efficiency, times that of MC3: 71.44 times
  Cellular transfection efficiency, times that of SM-102: 4.75 times
  Cellular transfection efficiency, times that of YK-501: 146.62 times
  Cellular transfection efficiency, times that of YK-506: 10.36 times
  Cellular transfection efficiency, times that of compound 7: 26.33 times
293T cells [1]; vs YK-906
  Cellular transfection efficiency, times that of YK-906: 246 times and 246.15 times
Female BALB/C mice [2]; 6 h
  Average radiation intensity, in vivo imaging: 12924543
Female BALB/C mice [2]; 24 h
  Average radiation intensity, in vivo imaging: 1322432
Female BALB/C mice [2]; 48 h
  Average radiation intensity, in vivo imaging: 576433
Female BALB/C mice [2]; 7 d
  Average radiation intensity, in vivo imaging: 87433
Female BALB/C mice [3]
  Average radiation intensity of mouse organs: Heart: 0
  Average radiation intensity of mouse organs: Kidney: 0
  Average radiation intensity of mouse organs: Liver: 9131
  Average radiation intensity of mouse organs: Lung: 0
  Average radiation intensity of mouse organs: Lymph: 0
  Average radiation intensity of mouse organs: Spleen: 204435
  Expression level of mRNA in the spleen, times that of SM-102: 8.00 times
  Expression level of mRNA in the spleen, times that of YK-501: 14.37 times
  Expression level of mRNA in the spleen, times that of YK-506: 2.87 times
293T cells [4]
  Cell viability: 92%
293T cells [4]; difference vs YK-906
  Cell viability higher than that of YK-906: 29%
[5]
  PDI: 11.9%
  Particle size: 132 nm
